Target: T1, G protein-coupled receptor 88 (Homo sapiens, UniProt Q9GZN0)
Assay: Modulator activity at GPR88 (unknown origin) expressed in cell membranes incubated for 1 hr by liquid scintillation counting based [35S]GTPgammaS binding assay
Assay type: functional

T1 sequence (Q9GZN0 whole entry): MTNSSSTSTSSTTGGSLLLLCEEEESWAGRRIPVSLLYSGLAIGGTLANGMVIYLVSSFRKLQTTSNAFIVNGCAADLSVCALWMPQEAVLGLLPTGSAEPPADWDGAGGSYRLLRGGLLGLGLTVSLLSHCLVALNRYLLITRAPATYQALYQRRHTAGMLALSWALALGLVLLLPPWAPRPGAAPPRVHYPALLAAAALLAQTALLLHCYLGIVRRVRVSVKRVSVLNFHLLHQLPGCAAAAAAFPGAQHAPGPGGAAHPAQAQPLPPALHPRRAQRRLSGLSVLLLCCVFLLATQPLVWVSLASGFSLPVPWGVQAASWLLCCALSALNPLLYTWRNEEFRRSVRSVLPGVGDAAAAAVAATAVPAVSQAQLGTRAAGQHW

Structure (SMILES) | EC50
CCc1ccc(-c2ccc([C@H](CO)NC(=O)[C@H]3C[C@@H]3c3cccs3)c(OC)c2)cc1 | ≤ 130 nM
CC[C@H](C)COc1ccc([C@H](CN)NC(=O)[C@H]2C[C@@H]2c2cccs2)c(C)c1 | ≤ 130 nM
CCc1ccc(-c2ccc([C@H](CO)NC(=O)[C@H]3C[C@@H]3c3cccs3)cc2)cc1 | ≤ 130 nM
CCCC(C)COc1ccc([C@H](CN2CCN(C)CC2)NC(=O)[C@H]2C[C@@H]2c2cccs2)cc1 (stereo partly drawn) | ≤ 130 nM
CC[C@H](NC(=O)[C@H]1C[C@@H]1c1ccccc1)c1ccc(-c2ccc(OC)cc2)cc1 | ≤ 130 nM
CC[C@H](C)COc1ccc([C@H](CN)NC(=O)[C@H]2C[C@@H]2c2cccs2)cc1 | ≤ 130 nM

Target: T1, G protein-coupled receptor 88
Assay: Modulator activity at GPR88 (unknown origin) incubated for 30 mins by cell based cAMP HTRF assay
Assay type: functional

Structure (SMILES) | EC50
Cc1ccc(-c2ccc([C@H](CO)NC(=O)[C@H]3C[C@@H]3c3cccs3)cc2)cc1 | ≤ 130 nM
CCC(CC)COc1ccc([C@H](CO)NC(=O)[C@H]2C[C@@H]2c2cccs2)cc1 | ≤ 130 nM
CCCC(C)COc1ccc([C@H](CO)NC(=O)[C@H]2C[C@@H]2c2cccs2)c(C)c1 (stereo partly drawn) | ≤ 130 nM
CC[C@H](C)COc1ccc([C@H](CN2CCN(C)CC2)NC(=O)[C@H]2C[C@@H]2c2cccs2)cc1 | ≤ 130 nM
CCC(CC)COc1ccc([C@H](CO)NC(=O)[C@H]2C[C@@H]2c2cccs2)c(C)c1 | ≤ 130 nM
CCCC#Cc1ccc([C@H](CO)NC(=O)[C@H]2C[C@@H]2c2cccs2)c(OC)c1 | ≤ 130 nM
CC[C@H](C)COc1ccc([C@H](CO)NC(=O)[C@H]2C[C@@H]2c2cccs2)c(C)c1 | ≤ 130 nM

— ChEMBL document CHEMBL3714734, “Modulators of G protein-coupled receptor 88” (2013)
